Where two headings read alike, the source gives them in different places.
Columns and labels:
[1] = Plasma pharmacokinetics of CC-11050 in mice after a single oral gavage (LC-MS/MS); format: in vivo; conditions: for Plasma concentration of CC-11050: mean ± SD
Method: The PDE4i, CC-11050 (N-[2-[(1S)-1-(3-ethoxy-4-methoxyphenyl)-2-(methylsulfonyl) ethyl]-2,3-dihydro-3-oxo-1H-isoindol-4-yl]-(9Cl) cyclopropanecarboxamide) has an empirical formula of C24H28N2O6S with one chiral center (Figure S1A in Supplementary Material). Uninfected mice (n = 3 per group) were treated with 5, 25, or 50 mg/kg of CC-11050 by oral gavage. In another experiment, mice (n = 3) were treated with 50 mg/kg of CC-11050 plus 50 mg/kg of INH. A group of mice (n = 3) without treatment were included as negative control. Venous blood was collected at 1, 2, 5, 8, and 24 h after a single gavage administration of CC-11050, with or without INH. Time-matched blood samples were also collected from untreated mice. The animals were gavaged after overnight fasting and fed soon after gavage. Plasma was collected by centrifugation of blood samples at 1,100× g for 10 min at 10°C and used for LC-MS/MS analysis.
The standard curve and quality control for CC-11050 were prepared in mouse plasma diluted 1:1 with Sorenson’s Citrate Buffer (25 mM; pH 1.5). Internal standard was prepared with ^13CD3-CC-11050 and mixed with the standard, quality control, or test samples at 4:1:1 (^13CD3-CC-11050:mouse plasma:Sorenson’s Citrate Buffer, vol/vol/vol) ratio. The mix was centrifuged at 4,000 rpm for 10 min at room temperature, and the supernatant was transferred to a 96-well assay plate. LC-MS/MS was performed using a Sciex API 4000 triple quadrupole mass spectrometer (Sciex, Division of MDS Inc., Canada) coupled to a Shimadzu HPLC system (Shimadzu Scientific Instruments, MD, USA). A Phenomenex Gemini column (5 μm, 2.0 mm × 50 mm; Phenomenex, CA, USA) was used for chromatography with 0.1% formic acid in water (mobile phase A) and 0.1% formic acid in acetonitrile (mobile phase B). The parameters used were 0 min for 10%B, 0.0–2.0 min for 10–75%B, 2.1–3.0 min for 95%B, and 3.05–4.0 min for 10%B. For mass spectrometric detection, a positive ion mode with turbo spray (ion source temperature of 450°C) and a dwell time of 100 ms was used. Analytes were quantified using multiple reactions monitoring (MRM) at the following transitions: mass-to-charge ratio 473.1–178.1 and 477.1–182.1 m/z for CC-11050 and its internal standard, respectively. Peak area ratios of the analyte to its internal standard versus analyte concentration, represented as quadratic regression plots, were derived with 1/x^2 weighting. Watson LIMS™ software was used to determine the pharmacokinetic parameters (Thermo Fisher, PA, USA). Peak plasma concentration (Cmax) and corresponding time (Tmax) were calculated from raw data. Area under the plasma concentration-time curve (AUC) was determined by linear/linear-log trapezoidal rule of non-compartmental model using data from time 0 and the last measurable time point (AUClast). All statistics were performed with Watson LIMS™ software. Plasma concentrations below the limit of quantitation (BLOQ) were treated as 0 for calculation.

[2] = tested on: Mycobacterium tuberculosis CDC1551; format: in vivo; conditions: in vivo, 50 mg/kg
[3] = parameters: method as in PMID 26981575; conditions: rabbits, cited from earlier work
[4] = single oral dose 50 mg/kg CC-11050 + 50 mg/kg INH
[5] = single oral dose 50 mg/kg CC-11050 only

Question: With CCOc1cc([C@@H](CS(C)(=O)=O)N2Cc3cccc(NC(=O)C4CC4)c3C2=O)ccc1OC [CC-11050, N-[2-[(1S)-1-(3-ethoxy-4-methoxyphenyl)-2-(methylsulfonyl)ethyl]-2,3-dihydro-3-oxo-1H-isoindol-4-yl]-(9Cl) cyclopropanecarboxamide] as the compound, how does the AUClast ([1]; single oral dose 5 mg/kg) read?
Answer: 1,080 ng × h/ml

Question: What about the AUClast ([1]; single oral dose 25 mg/kg) of the same compound?
Answer: 2,800 ng × h/ml

Question: What about the AUClast [1, 4] of the same compound?
Answer: 13,900 ng × h/ml

Question: What about the Cmax [1, 4] of the same compound?
Answer: 1,610 ng/ml

Question: What about the Tmax [1, 4] of the same compound?
Answer: 5.0 h

Question: What about the “Plasma concentration of CC-11050” value ([1]; single oral dose 50 mg/kg CC-11050 + 50 mg/kg INH, 1 h) of the same compound?
Answer: 905.35 ± 594.23 ng/mL

Question: What about the “Plasma concentration of CC-11050” value ([1]; single oral dose 50 mg/kg CC-11050 + 50 mg/kg INH, 2 h) of the same compound?
Answer: 1,309.39 ± 214.08 ng/ml

Question: And the “Plasma concentration of CC-11050” value ([1]; single oral dose 50 mg/kg CC-11050 + 50 mg/kg INH, 5 h)?
Answer: 1,609.18 ± 167.2 ng/ml

Question: And the “Plasma concentration of CC-11050” value ([1]; single oral dose 50 mg/kg CC-11050 + 50 mg/kg INH, 8 h)?
Answer: 1,271.73 ± 249.18 ng/ml

Question: And the “Plasma concentration of CC-11050” value ([1]; single oral dose 50 mg/kg CC-11050 + 50 mg/kg INH, 24 h)?
Answer: 4.96 ± 1.85 ng/mL

Question: And the AUClast [1, 5]?
Answer: 10,200 ng × h/ml

Question: What about the Cmax [1, 5] of the same compound?
Answer: 1,410 ng/ml

Question: And the Tmax [1, 5]?
Answer: 2.0 h

Question: And the “Plasma concentration of CC-11050” value ([1]; single oral dose 50 mg/kg CC-11050 only, 1 h)?
Answer: 1,331.6 ± 136.97 ng/ml

Question: And the “Plasma concentration of CC-11050” value ([1]; single oral dose 50 mg/kg CC-11050 only, 2 h)?
Answer: 1,409.47 ± 140.85 ng/ml

Question: And the “Plasma concentration of CC-11050” value ([1]; single oral dose 50 mg/kg CC-11050 only, 5 h)?
Answer: 948.85 ± 128.7 ng/mL

Question: What about the “Plasma concentration of CC-11050” value ([1]; single oral dose 50 mg/kg CC-11050 only, 8 h) of the same compound?
Answer: 820.6 ± 265.98 ng/mL

Question: What about the “Plasma concentration of CC-11050” value ([1]; single oral dose 50 mg/kg CC-11050 only, 24 h) of the same compound?
Answer: 1.27 ± 1.1 ng/mL

Question: What about the “Time to peak plasma concentration (Tmax)” value ([1]; single oral dose, each of three dose levels 5, 25, 50 mg/kg) of the same compound?
Answer: 1 to 2 h

Question: And the “Difference in number of lung CFUs versus untreated mice” value [2]?
Answer: No significant difference

Question: What about the Lung bacillary load ([2]; po) of the same compound?
Answer: about 5.5 log10

Question: What about the Cmax ([3]; 50 mg/kg) of the same compound?
Answer: 163 ng/mL

Question: What about the Tmax ([3]; 50 mg/kg) of the same compound?
Answer: 4 h

Question: What about the “Effect of INH on the pharmacokinetics of CC-11050” value [3] of the same compound?
Answer: no effects

— PMC4911353, “Pharmacologic Inhibition of Host Phosphodiesterase-4 Improves Isoniazid-Mediated Clearance of Mycobacterium tuberculosis” (Frontiers in Immunology, 2016)
